Entries after “also recorded” stand apart in the source; their conditions may differ.

The test concerns Pten^pc−/−; Zbtb7a^pc−/− prostate tumors. The experiment in a line: In vivo drug and antibody treatment of Pten^pc−/−; Zbtb7a^pc−/− mice (MRI, flow cytometry, histology, western blot, qRT-PCR). More on the design: species or system mouse. How it is done: Mice were allocated at random to experimental groups and studies were performed in an unblended manner. For treatment with the CXCR2 antagonist, SB225002 (Cayman Chemical #13336) was dissolved in DMSO (10 mg/ml) and diluted in vehicle (0.9% NaCl, 0.3% Tween 80) for in vivo administration. Mice (4 months of age) were treated daily for 10 days by intraperitoneal injection (5 mg/kg) and prostate tumor tissue (anterior lobes) was subjected to Flow Cytometry and histological analysis. For MRI analysis, mice (4 months of age) were treated daily for 21 days (Pten^pc-/-; Zbtb7a^pc-/-), for 14 days (Pten^pc-/-; Trp53^pc-/-) or for 14 days (Pten^pc-/-; Pml^pc-/-) by intraperitoneal injection (5 mg/kg). For depletion of Gr-1+/CD11b+ cells, Ly6G-depletion antibody (1A8, BioXcell) and control Rat IgG2a antibody (BioXcell) were diluted in phosphate-buffered saline (PBS) for in vivo administration. Mice (4 months of age) were treated every other day for 10 days by intraperitoneal injection (200-300 μg/mouse). InVivoMAb anti-mouse Ly6G/Ly6C (Gr-1) antibody, clone RB6-8C5 (BE0075, BioXcell), and control Rat IgG2b antibody (BE0090, BioXcell) were diluted in PBS and Pten^pc-/-; Trp53^pc-/- mice were treated every other day for 14 days by intraperitoneal injection (200 μg/mouse). For neutralization of CXCL5, anti-Mouse CXCL5 antibody (Leinco Technologies) and control Rat IgG2a antibody (BioXcell) were diluted in PBS and injected every other day for 21 days by intraperitoneal injection (20 μg/mouse). Tumor volume quantification was performed by using VivoQuant and Image J software. All mouse prostate MRI imaging analysis was performed at Small Animal Imaging Core at BIDMC and acquired on an […] Model M2 1T tabletop scanner. For western blotting, cell lysates were prepared by homogenizing tumor tissue with NP40 Buffer (Boston Bioproducts) supplemented with protease (Roche) and HALT phosphatase inhibitor cocktails (Thermo Scientific) and subsequently subjected to SDS-Gel separation (Invitrogen) and western blotting. The following antibodies were used for western blotting: […] (AC-74; Sigma), CXCL5 (R & D Systems #AF433), pIRAK4 (Cell Signaling Technology #11927S), IRAK4 (Cell Signaling Technology #4363P), IκBα (Cell Signaling Technology #4812S), Zbtb7a (hamster anti-Zbtb7a clone 13E9), PTEN (Cell Signaling Technology #9559S), p53 (Cell Signaling Technology #2524S), p21 (Santa Cruz Biotechnology sc-6246) and HSP90 (BD Biosciences BDB610419). Western blots were quantified using Image J software. For immunohistochemistry, tissues and organoids were fixed in 4% paraformaldehyde and embedded in paraffin in accordance with standard procedures. Embedding and hematoxylin and eosin staining of sections were performed by the Histology Core at BIDMC and analyzed by a pathologist. Sections were stained with anti-LY6G (BioLegend #127603), anti-CD45R (Abcam #ab64100), anti-CD3 (Abcam #ab5690), anti-beta Catenin (Abcam #32572), anti-phospho ERK (Cell Signaling Technology #4376), anti-phospho AKT Ser473 (Cell Signaling Technology #4060) and anti-Ki67 (Thermo Scientific #RM-9106) according to manufacturer's recommendations. For Flow Cytometry, spleen and lymph node single cell suspensions were prepared by mashing the tissue in 2% FBS/PBS. Tumor and control prostate tissue (from anterior lobes) single cell suspension was prepared by mincing the tumor and digestion with Collagenase Type I (Life Technologies #17018029) in 10% DMEM (GIBCO) for 1 hr at 37° C. […]
In general terms: In flow cytometry, cells or beads pass a laser one at a time.

As to `O=C(Nc1ccc([N+](=O)[O-])cc1O)Nc1ccccc1Br` [SB225002], the “tumor growth (tumor volume by MRI)” value (Zbtb7a^pc−/− mice, intraperitoneal injection, vs vehicle) is “significantly suppressed the tumor growth; also recorded: significant inhibition of tumor growth”. Under “Zbtb7a^pc−/− prostate tumors after treatment”, the “intra-tumoral Gr-1+/CD11b+ cells (flow cytometry)” value is recorded as “decrease of Gr-1+/CD11b+ cells”. In addition, under “Zbtb7a^pc−/− tumors, anterior prostate lobes”, the “tumor burden (histological analysis)” value is listed as “reduced tumor burden; also recorded: significantly diminished tumor involvement”. For the same compound, the “IκBα protein level (western blot)” value (Zbtb7a^pc−/− tumors, normalized with β-actin, vs vehicle) is on record as “increased IκBα protein levels”. Moreover, for the setting “Zbtb7a^pc−/− tumors, vs vehicle”, the “expression of CXCL5 in the prostate tumors” value is “elevated expression of CXCL5”.

For the origin of these results see patent publication US20210277102A1, “COMPOSITIONS AND METHODS FOR TREATING A TUMOR SUPPRESSOR DEFICIENT CANCER” (BETH ISRAEL DEACONESS MEDICAL CENTER, INC., priority 2016, published 2021).
